Legend:
[1] = tested on: Staph. aureus stationary phase bacteria; experiment: Bactericidal activity against stationary-phase cultures (CFU counts); assay type: cell-based, Staphylococcus aureus; conditions: 5 μg/mL of test compound
[2] = tested on: stationary phase Mycobacterium tuberculosis; experiment: Bactericidal activity against M. tuberculosis stationary-phase cultures (Model 1); assay type: cell-based; conditions: 10 μg/mL of test compound
[3] = tested on: methicillin-resistant Staph. aureus stationary phase bacteria; experiment: Bactericidal activity against stationary-phase cultures (CFU counts); assay type: cell-based, Methicillin resistant S. aureus (MRSA); conditions: MRSA stationary phase, 10 μg/mL of test compound
[4] = tested on: stationary phase Candida albicans; experiment: Activity against stationary-phase cultures of Candida albicans (CFU counts); assay type: cell-based; conditions: 10 μg/mL of test compound
[5] = tested on: Streptococcus agalactiae stationary phase bacteria; experiment: Bactericidal activity against stationary-phase cultures (CFU counts); assay type: cell-based; conditions: 10 μg/mL of test compound
[6] = tested on: Streptococcus pyogenes stationary phase bacteria; experiment: as above; assay type: cell-based; conditions: 20 μg/mL of test compound
[7] = tested on: Enterococcus stationary phase bacteria; experiment: as above; assay type: cell-based; conditions: 5 μg/mL of test compound
[8] = tested on: Coagulase negative staphylococcus stationary phase bacteria; experiment: as above; assay type: cell-based, Coagulase negative staphylococcus (CNS); conditions: 5 μg/mL of test compound
[9] = tested on: Streptococcus pneumoniae stationary phase bacteria; experiment: as above; assay type: cell-based; conditions: 10 μg/mL of test compound
[10] = tested on: Propionibacterium acnes stationary phase bacteria; experiment: as above; assay type: cell-based; conditions: 10 μg/mL of test compound
[11] = tested on: E. coli K12 stationary phase bacteria; experiment: as above; assay type: cell-based, Escherichia coli K12; conditions: 10 μg/mL of test compound

For `Cc1cc(N2CCC(c3ccccc3)C2)c2cc(OCCc3ccccc3)ccc2n1.Cl` (centres unmarked) [Example 6, 2-Methyl-6-phenethyloxy-4-(3-phenylpyrrolidin-1-yl)quinoline hydrochloride], the log kill [1] was 6.16.

For `Cc1cc(N2CCC(Cc3ccccc3)C2)c2cc(Oc3ccccc3)ccc2n1.Cl` (centres unmarked) [Example 8, 4-(3-Benzylpyrrolidin-1-yl)-2-methyl-6-phenoxyquinoline hydrochloride], the log kill [2] was 5.76, the log kill [3] was 6.34 and the log kill [4] was 3.70. For the same compound, the log kill [5] was 0.97.

Work on `COc1ccc(C2CCN(c3cc(C)nc4ccc(Oc5ccccc5)cc34)C2)cc1.Cl` (centres unmarked) [Example 9, 4-[3-(4-Methoxyphenyl)pyrrolidin-1-yl]-2-methyl-6-phenoxyquinoline hydrochloride] yielded a log kill [6] of 6.42.

In the case of `Cc1cc(N2CCC(c3ccccc3)C2)c2cc(NC(=O)c3cc(C)[nH]n3)ccc2n1.Cl` (centres unmarked) [Example 22, 5-Methyl-1H-pyrazole-3-carboxylic acid [2-methyl-4-(3-phenylpyrrolidin-1-yl)-quinolin-6-yl]amide hydrochloride], the log kill [7] is reported as 3.22 and the log kill [8] is reported as 5.99.

For `Cc1cc(N2CCC(c3ccccc3)C2)c2cc(Oc3ccccc3)ccc2n1.Cl` (centres unmarked) [Example 39, 2-Methyl-6-phenoxy-4-(3-phenylpyrrolidin-1-yl)quinoline hydrochloride], the log kill [9] was 7.32, the log kill [10] was 6.34 and the log kill [11] was 6.80.

Source: US8759348B2, “Use of 4-(pyrrolidin-1-yl)quinoline compounds to kill clinically latent microorganisms” (Helperby Therapeutics Limited, priority 2007, dated 2014)
